According to ChEMBL document CHEMBL1139641 (Bioorg Med Chem Lett, 2005):

Experiments:
[1] = target: GABA B receptor (Rattus norvegicus) (UniProt Q9Z0U4+O88871); test: Percent displacement of [3H]GABA (1 mM) from Gamma-aminobutyric acid B receptor of rat cerebellum; type: tissue-based
[2] = target: Calcium/calmodulin-dependent protein kinase type II subunit alpha (Rattus norvegicus, UniProt P11275); test: Displacement of [3H]NCS-382 (16 nM) from GHB receptor of rat cerebrocortical membranes; type: cell membranes, Membrane
[3] = target: GABA-A receptor; anion channel (Rattus norvegicus) (UniProt O09028+P15431+P18506+P18508+P19969+P20236+P23574+P23576+P28471+P28473+P30191+P62813+P63079+P63138+Q91ZM7+Q9ES14); test: Percent displacement of [3H]GABA (1 mM) from Gamma-aminobutyric acid A receptor of rat cerebral cortex; type: tissue-based

Calcium/calmodulin-dependent protein kinase type II subunit alpha, sequence (P11275 whole entry): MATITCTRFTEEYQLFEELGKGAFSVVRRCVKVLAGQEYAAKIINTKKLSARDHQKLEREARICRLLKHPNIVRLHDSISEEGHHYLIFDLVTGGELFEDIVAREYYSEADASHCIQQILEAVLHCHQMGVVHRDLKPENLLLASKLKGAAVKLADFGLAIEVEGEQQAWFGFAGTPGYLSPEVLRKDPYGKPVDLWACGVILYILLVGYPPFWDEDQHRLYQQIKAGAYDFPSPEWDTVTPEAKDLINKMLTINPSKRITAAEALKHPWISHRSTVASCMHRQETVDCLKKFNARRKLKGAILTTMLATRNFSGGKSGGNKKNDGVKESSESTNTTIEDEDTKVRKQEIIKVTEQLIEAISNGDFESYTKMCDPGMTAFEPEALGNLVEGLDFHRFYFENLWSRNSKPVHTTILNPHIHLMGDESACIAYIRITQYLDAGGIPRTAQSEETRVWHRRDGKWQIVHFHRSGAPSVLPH

With O=C(O)Cc1cccc(O)c1 [3-Hydroxyphenylacetate] the inhibition [1] was 14%, the IC50 [2] was 12 µM and the inhibition [3] was 44.2%.

Work on O=C(O)Cc1cccc(OCc2ccccc2)c1 yielded an inhibition [1] of -4.7%, an IC50 [2] of 46 µM and an inhibition [3] of 11%.

O=C(O)CCCO was tested, and the inhibition [1] was 41.1% and the inhibition [3] was 35.5%.

O=C(O)Cc1cccc(Oc2ccccc2)c1 showed an inhibition [1] of -5.5%, an IC50 [2] of 16.3 µM and an inhibition [3] of 2.7%.

O=C(O)CCCOc1ccccc1 showed an inhibition [1] of 6.5%, an IC50 [2] of 210 µM and an inhibition [3] of 6.3%.

In the case of O=C(O)Cc1cccc(OCCCc2ccccc2)c1, the inhibition [1] is reported as 6%, the IC50 [2] is reported as 4.5 µM and the inhibition [3] is reported as 17.4%.

O=C(O)Cc1cccc(OCCc2ccccc2)c1 showed an inhibition [1] of -1.2%, an IC50 [2] of 8.3 µM and an inhibition [3] of 15.1%.
